Consider 14 molecules from PubChem BioAssay (NCI).

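Compound exposure: 48 hours, 5 concentrations, 96-well plates. At the TGI there is no net growth.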

Some test systems named below: SW-620 colon; RXF 393 renal; TK-10 renal; M14 melanoma; OVCAR-3 ovarian; SK-MEL-2 melanoma; BT-549 breast; COLO 205 colon; HL-60(TB) leukemia; SK-MEL-5 melanoma.
What all share (test): NCI-60 cell line screen, 48 h

As to `NC(Cc1ccc(S(=O)(=O)O)cc1)C(=O)NC(Cc1ccc(S(=O)(=O)O)cc1)C(=O)O` (configuration not stated), the TGI in the assay with SW-620 colon, in the assay with RXF 393 renal, in the assay on TK-10 renal, with M14 melanoma, in the assay with OVCAR-3 ovarian and in the assay with SK-MEL-2 melanoma was over 100 µM each time. The TGI in the assay on BT-549 breast, with COLO 205 colon, in the assay with HL-60(TB) leukemia and with SK-MEL-5 melanoma was over 100 µM throughout.

Consider `COC(OC)[C@@H]1OC[C@@H](O)[C@@H]1n1cnc2c(N)ncnc21`, for which the TGI with SW-620 colon, with RXF 393 renal, with TK-10 renal, in the assay with M14 melanoma, in the assay on OVCAR-3 ovarian and in the assay on SK-MEL-2 melanoma was over 100 µM in each case. In addition, the TGI with BT-549 breast, in the assay with COLO 205 colon and in the assay on SK-MEL-5 melanoma was over 100 µM throughout.

Turning to `Cc1ccc(NC(=O)C(=O)CC(=O)c2sc(Nc3c(C)cccc3C)nc2C)cc1C`, the TGI in the assay on SW-620 colon, in the assay with RXF 393 renal, in the assay on TK-10 renal, in the assay on M14 melanoma, in the assay with OVCAR-3 ovarian and in the assay with SK-MEL-2 melanoma was over 100 µM in each case. The TGI in the assay with BT-549 breast, in the assay with COLO 205 colon, in the assay with HL-60(TB) leukemia and with SK-MEL-5 melanoma was over 100 µM each time.

As to `C[Si](C)(C)C1=C([Si](C)(C)C)C(Cl)(Cl)C1=O`, the TGI with SW-620 colon came to 13.2 µM; with RXF 393 renal, 5.33 µM; in the assay with TK-10 renal, 5.27 µM; in the assay on M14 melanoma, 9.24 µM; in the assay with OVCAR-3 ovarian, 8.15 µM; in the assay with SK-MEL-2 melanoma, 34.6 µM. Besides, the TGI was determined as 16.1 µM in the assay with BT-549 breast, 4.87 µM with COLO 205 colon, 1.53 µM with HL-60(TB) leukemia and 5.89 µM in the assay on SK-MEL-5 melanoma.

As to `CC(=O)N1CCn2c1nc1cc(Cl)ccc12`, the TGI is over 100 µM in the assay on SW-620 colon; 53.9 µM with RXF 393 renal; over 100 µM with TK-10 renal; over 100 µM in the assay with M14 melanoma; over 100 µM with OVCAR-3 ovarian; 92.4 µM in the assay on SK-MEL-2 melanoma. Moreover, the TGI in the assay on BT-549 breast, in the assay on COLO 205 colon, with HL-60(TB) leukemia and in the assay on SK-MEL-5 melanoma was over 100 µM in each case.

Regarding `CC(C)C1N(C)c2ccc(Cl)cc2[C@H]2c3ccccc3CCN12` (some centres not stated), the TGI in the assay on SW-620 colon is over 100 µM; in the assay with RXF 393 renal, over 100 µM; with TK-10 renal, over 100 µM; in the assay with M14 melanoma, over 100 µM; in the assay with OVCAR-3 ovarian, 70.3 µM; in the assay on SK-MEL-2 melanoma, 74.1 µM. Moreover, the TGI in the assay on BT-549 breast, in the assay on COLO 205 colon and in the assay with HL-60(TB) leukemia was over 100 µM throughout.

For the molecule `CC(=O)Oc1ccc(/C=C/C(=O)O[C@@H](C(=O)O)[C@@H](OC(=O)/C=C/c2ccc(OC(C)=O)c(OC(C)=O)c2)C(=O)O)cc1OC(C)=O`, the TGI in the assay with SW-620 colon, in the assay on RXF 393 renal, in the assay with TK-10 renal, in the assay with M14 melanoma, in the assay on OVCAR-3 ovarian and in the assay with SK-MEL-2 melanoma was over 100 µM each time. In addition, the TGI with BT-549 breast, with COLO 205 colon and in the assay with SK-MEL-5 melanoma was over 100 µM each time.

In the case of `NNC(=O)c1cc(=O)[nH][nH]1`, the TGI in the assay on SW-620 colon, in the assay with RXF 393 renal, in the assay with TK-10 renal, in the assay with M14 melanoma, with SK-MEL-2 melanoma and in the assay on BT-549 breast was over 100 µM throughout. In addition, the TGI in the assay with COLO 205 colon and in the assay with SK-MEL-5 melanoma was over 100 µM in each case.

For `S=C(Nc1ccc2cn[nH]c2c1)Nc1ccc2cn[nH]c2c1`, the TGI with SW-620 colon, with RXF 393 renal, in the assay with TK-10 renal, in the assay on M14 melanoma, in the assay with OVCAR-3 ovarian and in the assay on SK-MEL-2 melanoma was over 100 µM each time. In addition, the TGI in the assay with BT-549 breast, in the assay with COLO 205 colon and with SK-MEL-5 melanoma was over 100 µM in each case.

Consider `CC(C)(C)OC(=O)NCCCCC(NC(=O)c1ccccc1)C(N)=O` (configuration not stated), for which the TGI with SW-620 colon, in the assay with RXF 393 renal, in the assay with TK-10 renal, with M14 melanoma, in the assay on OVCAR-3 ovarian and in the assay with SK-MEL-2 melanoma was over 100 µM in each case. Further, the TGI with BT-549 breast, in the assay on COLO 205 colon and with SK-MEL-5 melanoma was over 100 µM throughout.

As for `CCOC(=O)C1=COC(C)(CCc2ccccc2)CC1=O` (configuration not stated), the TGI in the assay on SW-620 colon, in the assay on RXF 393 renal, with TK-10 renal, with M14 melanoma, in the assay on OVCAR-3 ovarian and in the assay on SK-MEL-2 melanoma was over 100 µM throughout. In addition, the TGI with BT-549 breast, in the assay with COLO 205 colon and in the assay with SK-MEL-5 melanoma was over 100 µM each time.

`CCOc1cc(NC(C)=O)ccc1C(=O)NN1C(=O)CSC1c1ccccc1` (configuration not stated): the TGI in the assay on SW-620 colon, in the assay with RXF 393 renal, in the assay with TK-10 renal, with M14 melanoma, in the assay with OVCAR-3 ovarian and in the assay on SK-MEL-2 melanoma was over 100 µM throughout. For the same molecule, the TGI in the assay on BT-549 breast, in the assay with COLO 205 colon, with HL-60(TB) leukemia and in the assay with SK-MEL-5 melanoma was over 100 µM in each case.

Consider `N#C/C(=C/NC(=S)c1ccncc1)C(N)=O`, for which the TGI in the assay with SW-620 colon, in the assay on RXF 393 renal, in the assay on TK-10 renal, in the assay on M14 melanoma, in the assay on OVCAR-3 ovarian and in the assay on SK-MEL-2 melanoma was over 100 µM each time. Also, the TGI with BT-549 breast, with COLO 205 colon, in the assay on HL-60(TB) leukemia and with SK-MEL-5 melanoma was over 100 µM in each case.

On to `COc1ccc(/C=N/n2cnc3[nH]c(C)c(Cc4ccccc4)c3c2=N)cc1`, for which the TGI is over 100 µM in the assay with SW-620 colon; 79.3 µM with RXF 393 renal; over 100 µM in the assay on TK-10 renal; over 100 µM in the assay with M14 melanoma; over 100 µM in the assay on OVCAR-3 ovarian; over 100 µM with SK-MEL-2 melanoma. Further, the TGI in the assay with BT-549 breast, in the assay on COLO 205 colon, with HL-60(TB) leukemia and in the assay with SK-MEL-5 melanoma was over 100 µM throughout.
